Data published in patent publication US10526337B2, “Heteroaryl derivative or pharmaceutically acceptable salt thereof, preparation method therefor, and pharmaceutical composition for preventing or treating diseases associated with PI3 kinases, containing same as active ingredient” (KOREA RESEARCH INSTITUTE OF CHEMICAL TECHNOLOGY, priority 2015, dated 2020).

Experiments:
Settings in all cases: ATP=10 uM, sample concentration=100 nM
[1] = molecular target: T1, PI3 Kinase (p110α/p85α) (h) (Homo sapiens, UniProt P42336); test: Inhibition of phosphatidylinositol 3-kinase alpha (PI3K α), pAkt Western blotting in EGF-stimulated MDA-MB-453 cells; assay type: cell-based
T1 construct: endogenous in cells; host or cells: MDA-MB-453
Experimental: The inhibition of phosphatidylinositol 3 kinase alpha (PI3K α) by those compounds prepared in Examples 1˜98 was investigated by the following experiment. The inhibition activity of each compound was measured in the following conditions: ATP=10 uM, and sample concentration=100 nM.
Human breast cancer cells (MDA-MB-453) cultured in DMEM (Dulbecco's Modified Eagle Medium, Hyclon, SH30243.01) supplemented with 10% fetal bovine serum (Hyclon, USA) were distributed in a 12-well plate at the density of 1,000,000 cells/well. The cells were stabilized in a 37° C. CO2 for 24 hours and then treated with each compound for 1 and half hours. The cells were treated with 10 ng/mL of EGF (Epidermal Growth Factor, 10 μg/mL; R&D, 2150-C5) to increase the intracellular activity of PI3K alpha. 5 minutes later, the medium was discarded and the cells were washed with cold PBS (phosphate buffered saline, Gibco, 14190-250). PBS was then eliminated completely by using a pipette. Western blotting was performed as described in step 2 to evaluate the intracellular PI3K alpha activity.
(§1) The stimulated cells were transferred in a 1.5 mL tube, followed by centrifugation at 3000 rpm for 1 minute. 100 μL of RIPA buffer (radioimmunoprecipitation assay buffer, 50 mM Tris-HCl, 5 mM EDTA, 150 mM NaCl, 1% NP-40, 1 mM PMSF, pH 8.0; ELPIS, Korea) was added thereto, which was stored in a 4° C. refrigerator for 12 hours. Centrifugation was performed at 4° C. at 14,000 rpm for 20 minutes. The supernatant was transferred into a new 1.5 mL tube. Protein was quantified by BCA (bicinchoninic acid) method and samples were prepared. The composition of the sample was as follows: sample buffer (ELPIS, EBA-1052) 5×, protein 10 μg, and 1× sample buffer to make the total volume 20 μL. The sample was heated at 100° C. for 5 minutes. The evaporated water vapor was condensed in a refrigerator. The liquid stained on the wall was fallen down by centrifugation for a few seconds. The sample proceeded to 10% SDS (Sodium Dodecyl Sulfate) acrylamide gel for separation. The separated protein was transferred onto PVDF (poly-vinyl difluoride) membrane, followed by reaction with pAkt (phospho protein kinase B) antibody (Ser473 or Thr308; Cell signaling, 9271s or 13038s) for 12 hours at 4° C. The membrane was washed with TBST (Tris-Buffered Saline with Tween 20, 10 mM Tris-HCl, pH 7.5, 150 mM NaCl, 0.1% Tween-20) three times for 5 minutes each, to which the secondary antibody (rabbit antibody, Santacruz, sc-2004) was added, followed by reaction at room temperature for 2 hours. The membrane was washed with TBST three times for 10 minutes each, to which ECL (enhanced chemiluminescence, Thermo, NCI34095KR) was sprayed. Bands were investigated by using LAS-3000.

[2] = molecular target: T2, PI3 Kinase (p120γ) (h) (Homo sapiens, UniProt P48736); test: Inhibition of phosphatidylinositol 3-kinase gamma (PI3K γ), pAkt Western blotting in C5a-stimulated RAW264.7 macrophages; assay type: cell-based, mouse
T2 construct: endogenous in cells; host or cells: RAW264.7
T2 sequence (P48736 whole entry): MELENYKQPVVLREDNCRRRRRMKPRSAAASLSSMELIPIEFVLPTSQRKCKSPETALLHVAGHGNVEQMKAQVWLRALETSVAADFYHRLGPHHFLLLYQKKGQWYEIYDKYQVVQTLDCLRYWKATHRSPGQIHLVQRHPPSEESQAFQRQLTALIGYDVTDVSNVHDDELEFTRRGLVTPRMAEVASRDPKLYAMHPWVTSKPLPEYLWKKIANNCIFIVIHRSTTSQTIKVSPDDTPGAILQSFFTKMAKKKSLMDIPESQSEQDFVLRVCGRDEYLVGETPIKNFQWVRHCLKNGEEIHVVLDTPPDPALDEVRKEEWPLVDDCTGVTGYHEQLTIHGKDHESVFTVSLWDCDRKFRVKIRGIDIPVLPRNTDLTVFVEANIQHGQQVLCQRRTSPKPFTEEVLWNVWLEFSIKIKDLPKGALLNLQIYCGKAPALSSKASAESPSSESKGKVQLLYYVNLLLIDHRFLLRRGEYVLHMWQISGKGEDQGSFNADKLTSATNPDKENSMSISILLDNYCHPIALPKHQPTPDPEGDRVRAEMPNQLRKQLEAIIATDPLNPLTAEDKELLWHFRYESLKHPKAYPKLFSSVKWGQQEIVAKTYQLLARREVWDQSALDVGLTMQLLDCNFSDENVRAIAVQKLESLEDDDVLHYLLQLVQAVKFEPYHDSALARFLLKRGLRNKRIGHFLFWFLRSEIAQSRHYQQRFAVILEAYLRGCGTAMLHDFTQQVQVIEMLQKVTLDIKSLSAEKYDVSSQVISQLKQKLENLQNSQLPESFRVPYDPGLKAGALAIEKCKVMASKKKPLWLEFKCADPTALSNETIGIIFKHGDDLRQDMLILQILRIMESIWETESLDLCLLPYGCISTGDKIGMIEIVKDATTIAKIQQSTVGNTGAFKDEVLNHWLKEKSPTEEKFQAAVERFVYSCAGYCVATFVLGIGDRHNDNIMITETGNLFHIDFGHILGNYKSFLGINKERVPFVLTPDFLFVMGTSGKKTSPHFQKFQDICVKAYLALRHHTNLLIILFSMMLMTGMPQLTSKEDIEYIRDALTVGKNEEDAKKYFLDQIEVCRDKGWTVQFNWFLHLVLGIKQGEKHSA
Procedure, shortened: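 Enzyme: PI3Kγ activity measured at ATP=10 uM with compound at 100 nM. Cellular: RAW264.7 macrophages treated with compound 1.5 h, then stimulated with 10 ng/mL C5a for 5 min; lysates (10 μg protein) probed by Western blot for pAkt (Ser473 or Thr308), ECL detection.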

[3] = molecular target: T3, PI3 Kinase (p110δ/p85α) (h) (Homo sapiens, UniProt O00329); test: Inhibition of phosphatidylinositol 3-kinase delta (PI3K δ), pAkt Western blotting in IgM-stimulated Raji cells; assay type: cell-based
T3 construct: endogenous in cells; host or cells: Raji
T3 sequence (O00329 whole entry): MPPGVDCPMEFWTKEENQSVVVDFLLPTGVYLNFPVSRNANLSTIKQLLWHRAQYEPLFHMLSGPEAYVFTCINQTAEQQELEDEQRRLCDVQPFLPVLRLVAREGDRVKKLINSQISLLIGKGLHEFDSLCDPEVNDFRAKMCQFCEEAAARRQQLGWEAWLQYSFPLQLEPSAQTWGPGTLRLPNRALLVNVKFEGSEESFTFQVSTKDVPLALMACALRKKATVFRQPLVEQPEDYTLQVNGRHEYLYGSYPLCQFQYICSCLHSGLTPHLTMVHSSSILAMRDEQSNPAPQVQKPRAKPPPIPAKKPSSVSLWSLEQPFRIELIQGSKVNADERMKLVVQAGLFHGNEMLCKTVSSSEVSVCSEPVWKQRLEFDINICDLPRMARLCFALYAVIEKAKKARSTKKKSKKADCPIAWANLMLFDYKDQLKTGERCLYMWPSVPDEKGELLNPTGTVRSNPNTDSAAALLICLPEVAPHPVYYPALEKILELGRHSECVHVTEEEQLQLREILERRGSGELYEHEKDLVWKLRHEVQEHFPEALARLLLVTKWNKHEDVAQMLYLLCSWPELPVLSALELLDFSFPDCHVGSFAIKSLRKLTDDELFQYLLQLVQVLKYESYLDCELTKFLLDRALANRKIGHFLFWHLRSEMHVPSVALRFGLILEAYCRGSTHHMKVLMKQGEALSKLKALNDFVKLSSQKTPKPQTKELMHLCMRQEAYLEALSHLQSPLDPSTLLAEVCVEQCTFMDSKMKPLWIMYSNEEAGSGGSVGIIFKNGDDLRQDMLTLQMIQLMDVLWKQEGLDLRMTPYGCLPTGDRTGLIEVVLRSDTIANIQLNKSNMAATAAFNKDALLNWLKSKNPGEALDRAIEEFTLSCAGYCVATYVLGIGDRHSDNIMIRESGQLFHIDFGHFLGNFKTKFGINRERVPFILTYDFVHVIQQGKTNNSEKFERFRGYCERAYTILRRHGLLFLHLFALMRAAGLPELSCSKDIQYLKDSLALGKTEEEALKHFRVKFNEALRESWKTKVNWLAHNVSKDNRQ
T3 sequence (P27986 whole entry partner): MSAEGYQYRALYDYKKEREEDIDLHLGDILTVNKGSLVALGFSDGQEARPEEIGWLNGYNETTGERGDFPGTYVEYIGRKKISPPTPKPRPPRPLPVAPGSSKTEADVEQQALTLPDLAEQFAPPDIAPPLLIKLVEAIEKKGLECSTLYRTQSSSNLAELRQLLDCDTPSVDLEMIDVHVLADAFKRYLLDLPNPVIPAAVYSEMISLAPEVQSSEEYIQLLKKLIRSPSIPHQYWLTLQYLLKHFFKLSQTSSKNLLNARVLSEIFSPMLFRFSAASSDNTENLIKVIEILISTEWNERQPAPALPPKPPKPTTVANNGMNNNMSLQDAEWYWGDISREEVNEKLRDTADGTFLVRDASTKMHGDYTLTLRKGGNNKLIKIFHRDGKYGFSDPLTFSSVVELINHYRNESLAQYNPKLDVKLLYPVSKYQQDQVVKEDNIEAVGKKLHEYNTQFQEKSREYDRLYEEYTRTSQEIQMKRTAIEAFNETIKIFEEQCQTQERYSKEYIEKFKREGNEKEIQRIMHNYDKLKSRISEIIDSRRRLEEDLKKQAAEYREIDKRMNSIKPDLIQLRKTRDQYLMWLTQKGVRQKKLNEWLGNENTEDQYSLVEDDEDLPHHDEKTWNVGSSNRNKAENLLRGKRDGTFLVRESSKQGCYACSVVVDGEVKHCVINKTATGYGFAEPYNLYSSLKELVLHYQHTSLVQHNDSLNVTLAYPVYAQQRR
Procedure, shortened: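 Raji cells were treated with compound for 1.5 h, then stimulated with 0.25 μg/mL IgM for 30 min to activate PI3Kδ. Lysates were Western blotted for pAkt (Ser473 or Thr308) with ECL detection. Conditions stated: ATP=10 uM, sample concentration=100 nM.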

[4] = molecular target: T4, PI3 Kinase (p110β/p86α) (h) (Homo sapiens, UniProt P42338); test: Inhibition of phosphatidylinositol 3-kinase beta (PI3K β), pAkt Western blotting in LPA-stimulated PC3 cells; assay type: cell-based
T4 construct: endogenous in cells; host or cells: PC3
T4 sequence (P42338 whole entry): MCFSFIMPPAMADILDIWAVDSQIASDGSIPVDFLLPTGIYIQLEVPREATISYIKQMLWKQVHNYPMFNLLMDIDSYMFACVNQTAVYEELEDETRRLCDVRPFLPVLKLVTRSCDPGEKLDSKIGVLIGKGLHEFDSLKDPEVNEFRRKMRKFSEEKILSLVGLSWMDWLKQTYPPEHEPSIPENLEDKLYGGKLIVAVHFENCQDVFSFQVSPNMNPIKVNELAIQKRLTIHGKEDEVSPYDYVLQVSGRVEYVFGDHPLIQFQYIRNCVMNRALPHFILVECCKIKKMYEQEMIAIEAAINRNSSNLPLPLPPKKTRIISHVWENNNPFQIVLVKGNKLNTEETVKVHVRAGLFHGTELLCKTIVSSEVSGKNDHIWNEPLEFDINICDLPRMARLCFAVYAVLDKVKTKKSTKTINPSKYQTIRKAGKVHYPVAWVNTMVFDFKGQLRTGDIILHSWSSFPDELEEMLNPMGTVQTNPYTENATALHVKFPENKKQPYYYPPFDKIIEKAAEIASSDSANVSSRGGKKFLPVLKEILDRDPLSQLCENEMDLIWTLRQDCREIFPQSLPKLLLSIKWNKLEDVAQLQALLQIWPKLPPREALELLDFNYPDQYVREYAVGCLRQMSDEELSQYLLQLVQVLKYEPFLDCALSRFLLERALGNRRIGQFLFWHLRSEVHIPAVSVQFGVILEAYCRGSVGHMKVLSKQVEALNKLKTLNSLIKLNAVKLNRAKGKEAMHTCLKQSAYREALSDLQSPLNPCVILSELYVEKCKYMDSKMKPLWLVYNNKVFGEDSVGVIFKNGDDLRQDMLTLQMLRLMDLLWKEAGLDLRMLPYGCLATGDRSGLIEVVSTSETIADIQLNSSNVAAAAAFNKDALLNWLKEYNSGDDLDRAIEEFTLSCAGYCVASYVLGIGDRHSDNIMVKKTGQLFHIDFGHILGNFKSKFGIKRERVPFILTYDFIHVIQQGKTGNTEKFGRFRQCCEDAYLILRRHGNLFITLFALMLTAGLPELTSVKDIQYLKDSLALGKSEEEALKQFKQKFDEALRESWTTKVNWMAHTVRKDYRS
T4 sequence (P27986 whole entry partner): as the sequence (P27986 whole entry partner) above
Experimental: as §1
The inhibition of phosphatidylinositol 3 kinase beta (PI3K β) by those compounds prepared in Examples 1˜98 was investigated by the following experiment. The inhibition activity of each compound was measured in the following conditions: ATP=10 uM, and sample concentration=100 nM.
Human prostate cancer cells (PC3 cells) cultured in DMEM (Dulbecco's Modified Eagle Medium, Hyclon, SH30243.01) supplemented with 10% fetal bovine serum (Hyclon, USA) were distributed in a 12-well plate at the density of 1,000,000 cells/well. The cells were stabilized in a 37° C. CO2 for 24 hours and then treated with each compound for 1 and half hours. The cells were treated with 10 ng/mL of LPA (lysophosphatidic acid, 10 μg/mL; R&D, 2150-05) to increase the intracellular activity of PI3K beta. 5 minutes later, the medium was discarded and the cells were washed with cold PBS (phosphate buffered saline, Gibco, 14190-250). PBS was then eliminated completely by using a pipette. Western blotting was performed according to the same manner as described in step 2 of Experimental Example 1 to evaluate the intracellular PI3K beta activity.

IC50 [1] [µM]	IC50 [2] [µM]	IC50 [3] [µM]	IC50 [4] [µM]	Structure (SMILES)
> 0.5	0.01 to 0.5	< 0.01	> 0.5	C[C@H](Nc1ncnc2[nH]cc(Cl)c(=O)c12)c1nc2cccc(Cl)c2c(=O)n1-c1ccccc1 [Example 22, (S)-6-chloro-4-((1-(5-chloro-4-oxo-3-phenyl-3,4-dihydroquinazoline-2-yl)ethyl)amino)pyrido[2,3-d]pyrimidine-5(8H)-one]
> 0.5	0.01 to 0.5	< 0.01	> 0.5	C[C@H](Nc1ncnc2[nH]cc(Cl)c(=O)c12)c1cc2cccc(Cl)c2c(=O)n1-c1ccccc1 [Example 23, (S)-6-chloro-4-((1-(8-chloro-1-oxo-2-phenyl-1,2-dihydroisoquinoline-3-yl)ethyl)amino)pyrido[2,3-d]pyrimidine-5(8H)-one]
> 0.5	> 0.5	0.01 to 0.5	> 0.5	CC(Nc1ncnc2[nH]ccc(=O)c12)c1nc2ccc(F)cc2c(-c2ccccn2)c1-c1ccccn1 (centres unmarked) [Example 26, 4-((1-(6-fluoro-3,4-di(pyridine-2-yl)quinoline-2-yl)ethyl)amino)pyrido[2,3-d]pyrimidine-5(8H)-one]
> 0.5	0.01 to 0.5	0.01 to 0.5	> 0.5	C[C@H](Nc1ncnc2[nH]ccc(=O)c12)c1nc2ccc(F)cc2c(-c2ccccn2)c1-c1ccccc1 [Example 27, (S)-4-((1-(6-fluoro-3-phenyl-4-(pyridine-2-yl)quinoline-2-yl)ethyl)amino)pyrido[2,3-d]pyrimidine-5(8H)-one]
> 0.5	0.01 to 0.5	< 0.01	> 0.5	C[C@H](Nc1ncnc2[nH]ccc(=O)c12)c1nc2ccc(F)cc2c(=O)n1-c1ccccc1 [Example 29, (S)-4-((1-(6-fluoro-4-oxo-3-phenyl-3,4-dihydroquinazoline-2-yl)ethyl)amino)pyrido[2,3-d]pyrimidine-5(8H)-one]
> 0.5	0.01 to 0.5	< 0.01	> 0.5	C[C@H](Nc1ncnc2[nH]ccc(=O)c12)c1nc2ccc(F)cc2c(=O)n1-c1cccc(F)c1 [Example 30, (S)-4-((1-(6-fluoro-3-(3-fluorophenyl)-4-oxo-3,4-dihydroquinazoline-2-yl)ethyl)amino)pyrido[2,3-d]pyrimidine-5(8H)-one]
> 0.5	> 0.5	0.01 to 0.5	> 0.5	C[C@H](Nc1ncnc2[nH]ccc(=O)c12)c1nc2cccc(Cl)c2c(=O)n1Cc1ccccc1Cl [Example 31, (S)-4-((1-(5-chloro-3-(2-chlorobenzyl)-4-oxo-3,4-dihydroquinazoline-2-yl)ethyl)amino)pyrido[2,3-d]pyrimidine-5(8H)-one]
0.01 to 0.5	< 0.01	< 0.01	> 0.5	C[C@H](Nc1ncnc2c1C(=O)N(C)CN2)c1cc2cccc(Cl)c2c(=O)n1-c1ccccc1 [Example 38, (S)-5-((1-(8-chloro-1-oxo-2-phenyl-1,2-dihydroisoquinoline-3-yl)ethyl)amino)-3-methyl-2,3-dihydropyrimido[4,5-d]pyrimidine-4(1H)-one]
> 0.5	0.01 to 0.5	< 0.01	> 0.5	C[C@H](Nc1ncnc2c1C(=O)N(C)CN2)c1c(Cl)c2cccc(Cl)c2c(=O)n1-c1ccccc1 [Example 40, (S)-5-((1-(4,8-dichloro-1-oxo-2-phenyl-1,2-dihydroisoquinoline-3-yl)ethyl)amino)-3-methyl-2,3-dihydropyrimido[4,5-d]pyrimidine-4(1H)-one]
> 0.5	> 0.5	> 0.5	> 0.5	C[C@H](Nc1ncnc2c1C(=O)N(C1CC1)CN2)c1cc2cccc(Cl)c2c(=O)n1-c1ccccc1 [Example 62, (S)-5-(1-(8-chloro-1-oxo-2-phenyl-1,2-dihydroisoquinoline-3-yl)ethylamino)-3-cyclopropyl-2,3-dihydropyrimido[4,5-d]pyrimidine-4(1H)-one]

Second part, the molecule before the results:

Structure (SMILES)	IC50 [1] [µM]	IC50 [2] [µM]	IC50 [3] [µM]	IC50 [4] [µM]
C[C@H](Nc1ncnc2[nH]cc(F)c(=O)c12)c1nc2cccc(Cl)c2c(=O)n1-c1ccccc1 [Example 21, (S)-4-((1-(5-chloro-4-oxo-3-phenyl-3,4-dihydroquinazoline-2-yl)ethyl)amino)-6-fluoropyrido[2,3-d]pyrimidine-5(8H)-one]	0.01 to 0.5	0.01 to 0.5	< 0.01	0.01 to 0.5
C[C@H](Nc1ncnc2[nH]cc(Cl)c(=O)c12)c1c(Cl)c2cccc(Cl)c2c(=O)n1-c1ccccc1 [Example 24, (S)-6-chloro-4-((1-(4,8-dichloro-1-oxo-2-phenyl-1,2-dihydroisoquinoline-3-yl)ethyl)amino)pyrido[2,3-d]pyrimidine-5(8H)-one]	> 0.5	0.01 to 0.5	0.01 to 0.5	> 0.5
C[C@H](Nc1nc(N)nc2[nH]ccc(=O)c12)c1nc2ccc(F)cc2cc1-c1ccccn1 [Example 25, (S)-2-amino-4-((1-(6-fluoro-3-(pyridine-2-yl)quinoline-2-yl)ethyl)amino)pyrido[2,3-d]pyrimidine-5(8H)-one]	> 0.5	< 0.01	< 0.01	> 0.5
C[C@H](Nc1ncnc2[nH]ccc(=O)c12)c1nc2ccc(F)cc2c(=O)n1-c1cccnc1 [Example 28, (S)-4-((1-(6-fluoro-4-oxo-3-(pyridine-3-yl)-3,4-dihydroquinazoline-2-yl)ethyl)amino)pyrido[2,3-d]pyrimidine-5(8H)-one]	> 0.5	> 0.5	0.01 to 0.5	> 0.5
CC(Nc1ncnc2[nH]ccc(=O)c12)c1nc2cccc(Cl)c2cc1-c1ccccn1 (centres unmarked) [Example 33, 4-((1-(5-chloro-3-(pyridine-2-yl)quinoline-2-yl)ethyl)amino)pyrido[2,3-d]pyrimidine-5(8H)-one]	> 0.5	0.01 to 0.5	< 0.01	> 0.5
CCN1CNc2ncnc(N[C@@H](C)c3cc4cccc(Cl)c4c(=O)n3-c3ccccc3)c2C1=O [Example 60, (S)-5-(1-(8-chloro-1-oxo-2-phenyl-1,2-dihydroisoquinoline-3-yl)ethylamino)-3-ethyl-2,3-dihydropyrimido[4,5-d]pyrimidine-4(1H)-one]	> 0.5	0.01 to 0.5	0.01 to 0.5	> 0.5
CCCN1CNc2ncnc(N[C@@H](C)c3cc4cccc(Cl)c4c(=O)n3-c3ccccc3)c2C1=O [Example 61, (S)-5-(1-(8-chloro-1-oxo-2-phenyl-1,2-dihydroisoquinoline-3-yl)ethylamino)-3-propyl-2,3-dihydropyrimido[4,5-d]pyrimidine-4(1H)-one]	> 0.5	> 0.5	> 0.5	> 0.5
